Test results as given in ChEMBL document CHEMBL1201862, “PubChem BioAssay data set” (2004).
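Cells were grown in 96-well plates and exposed to each compound for 48 hours at five concentrations; endpoints were interpolated linearly between bracketing concentrations, or set to the highest concentration if not reached. GI50: concentration for 50% inhibition of growth.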 Calls of active or inactive are those of the source. Cut-off read from the data, not from the text of the source: active = GI50 up to about 1.1 µM and inactive = higher.

How the values were obtained:
Experiment in all cases: growth of human tumour cells (NCI), 48 h
A498 = tested on: A498
A549 = tested on: A549
CCRF-CEM = tested on: CCRF-CEM
HCT-116 = tested on: HCT-116
HCT-15 = tested on: HCT-15
KM12 = tested on: KM12
MOLT-4 = tested on: MOLT-4
NCI-H226 = tested on: NCI-H226
OVCAR-4 = tested on: OVCAR-4
SF-268 = tested on: SF-268
SF-295 = tested on: SF-295
SK-MEL-28 = tested on: SK-MEL-28
SK-MEL-2 = tested on: SK-MEL-2
SNB-19 = tested on: SNB-19
SNB-75 = tested on: SNB-75
SNB-78 = tested on: SNB-78
SR = tested on: SR
OVCAR-5 = tested on: OVCAR-5
OVCAR-3 = tested on: OVCAR-3

Compound	GI50 (A498)	GI50 (A549)	GI50 (CCRF-CEM)	GI50 (HCT-116)	GI50 (HCT-15) [µM]	GI50 (KM12)	GI50 (MOLT-4)	GI50 (NCI-H226)	GI50 (OVCAR-4)	GI50 (SF-268)	GI50 (SF-295)	GI50 (SK-MEL-28)	GI50 (SK-MEL-2)	GI50 (SNB-19)	GI50 (SNB-75)	GI50 (SNB-78)	GI50 (SR)	GI50 (OVCAR-5)	GI50 (OVCAR-3)
COC(=O)N/N=C(\C)c1c(O)cc(C)oc1=O	> 100 µM (inactive)	29 µM (inactive)	46 µM (inactive)	98.4 µM (inactive)	17	52.6 µM (inactive)	18.5 µM (inactive)	> 100 µM (inactive)	> 100 µM (inactive)	22.1 µM (inactive)	29.4 µM (inactive)	50.8 µM (inactive)	41.4 µM (inactive)	> 100 µM (inactive)	> 100 µM (inactive)	> 100 µM (inactive)	37.2 µM (inactive)	–	–
COC(=O)[C@@]12OC[C@]34C([C@@H](O)C1O)[C@@]1(C)CC(=O)C(OC(=O)/C=C(/c5ccccc5)C(F)(F)F)=C(C)C1C[C@H]3OC(=O)[C@H](O)[C@H]42 (some centres not stated)	0.52 µM (active)	16.5 µM (inactive)	8.71 µM (inactive)	8.63 µM (inactive)	23.8	14.4 µM (inactive)	2.14 µM (inactive)	6.5 µM (inactive)	17.7 µM (inactive)	11.2 µM (inactive)	7.93 µM (inactive)	5.31 µM (inactive)	7.96 µM (inactive)	4.71 µM (inactive)	4.01 µM (inactive)	11.2 µM (inactive)	3.29 µM (inactive)	21.8 µM (inactive)	–
O=C1C2C3C=C4c5ccccc5N(c5ccccc5)C4(C2C(=O)N1c1ccc(Br)cc1)[C@H]1C(=O)N(c2ccc(Br)cc2)C(=O)[C@@H]31 (some centres not stated)	> 100 µM (inactive)	> 100 µM (inactive)	> 100 µM (inactive)	> 100 µM (inactive)	> 100	> 100 µM (inactive)	8.89 µM (inactive)	> 100 µM (inactive)	> 100 µM (inactive)	–	> 100 µM (inactive)	–	> 100 µM (inactive)	> 100 µM (inactive)	> 100 µM (inactive)	> 100 µM (inactive)	38.9 µM (inactive)	> 100 µM (inactive)	> 100 µM (inactive)
CCCC/C=C1\CCC(C)(CN(C)C)C1=O (configuration not stated)	> 100 µM (inactive)	> 100 µM (inactive)	> 100 µM (inactive)	> 100 µM (inactive)	> 100	> 100 µM (inactive)	> 100 µM (inactive)	–	> 100 µM (inactive)	> 100 µM (inactive)	> 100 µM (inactive)	> 100 µM (inactive)	> 100 µM (inactive)	–	–	> 100 µM (inactive)	> 100 µM (inactive)	> 100 µM (inactive)	> 100 µM (inactive)
CCOc1ccc(NC(=O)CCc2nnc(SC)o2)cc1	> 100 µM (inactive)	> 100 µM (inactive)	> 100 µM (inactive)	> 100 µM (inactive)	> 100	> 100 µM (inactive)	> 100 µM (inactive)	> 100 µM (inactive)	> 100 µM (inactive)	> 100 µM (inactive)	> 100 µM (inactive)	> 100 µM (inactive)	> 100 µM (inactive)	> 100 µM (inactive)	> 100 µM (inactive)	> 100 µM (inactive)	> 100 µM (inactive)	> 100 µM (inactive)	> 100 µM (inactive)
COC(=O)C12C34C=CC5(CCC6(C=CC1(CC3)O6)C52C(=O)OC)O4 (configuration not stated)	93.3 µM (inactive)	> 100 µM (inactive)	> 100 µM (inactive)	> 100 µM (inactive)	–	> 100 µM (inactive)	> 100 µM (inactive)	> 100 µM (inactive)	> 100 µM (inactive)	> 100 µM (inactive)	> 100 µM (inactive)	> 100 µM (inactive)	> 100 µM (inactive)	> 100 µM (inactive)	–	> 100 µM (inactive)	> 100 µM (inactive)	> 100 µM (inactive)	–
C/C(=N/NC(=O)C(N)=O)C(CC(C(=O)Nc1ccccc1C)/C(C)=N\NC(=O)C(N)=O)C(=O)Nc1ccccc1C (configuration not stated)	> 100 µM (inactive)	> 100 µM (inactive)	> 100 µM (inactive)	–	–	> 100 µM (inactive)	75.9 µM (inactive)	> 100 µM (inactive)	> 100 µM (inactive)	> 100 µM (inactive)	> 100 µM (inactive)	> 100 µM (inactive)	> 100 µM (inactive)	> 100 µM (inactive)	> 100 µM (inactive)	> 100 µM (inactive)	–	> 100 µM (inactive)	> 100 µM (inactive)
C=CCCCCCCCCCCCC1CCC(CC)N1 (configuration not stated)	19.5 µM (inactive)	10.3 µM (inactive)	8.3 µM (inactive)	6.04 µM (inactive)	3.4	3.87 µM (inactive)	4.06 µM (inactive)	28.5 µM (inactive)	4.79 µM (inactive)	20.6 µM (inactive)	13.8 µM (inactive)	15.7 µM (inactive)	13.2 µM (inactive)	15.5 µM (inactive)	14.4 µM (inactive)	14.9 µM (inactive)	2.47 µM (inactive)	10.6 µM (inactive)	9.44 µM (inactive)
O=C(Nc1c(O)[nH]c(=S)[nH]c1=O)c1ccccc1F	> 100 µM (inactive)	> 100 µM (inactive)	> 100 µM (inactive)	> 100 µM (inactive)	> 100	> 100 µM (inactive)	> 100 µM (inactive)	> 100 µM (inactive)	> 100 µM (inactive)	> 100 µM (inactive)	> 100 µM (inactive)	> 100 µM (inactive)	> 100 µM (inactive)	> 100 µM (inactive)	> 100 µM (inactive)	> 100 µM (inactive)	> 100 µM (inactive)	> 100 µM (inactive)	> 100 µM (inactive)
CCOc1ccc(/N=C/c2c3ccccc3nc3ccccc23)cc1	68.1 µM (inactive)	74.6 µM (inactive)	3.59 µM (inactive)	–	25.1	4.33 µM (inactive)	4.25 µM (inactive)	> 100 µM (inactive)	70 µM (inactive)	71 µM (inactive)	59.6 µM (inactive)	> 100 µM (inactive)	31.3 µM (inactive)	73.8 µM (inactive)	44.8 µM (inactive)	> 100 µM (inactive)	–	> 10 µM (inactive)	31.1 µM (inactive)
CCCCCCCCCCCCCCCCOC(=O)c1cc(O)cc(C(=O)OCCCCCCCCCCCCCCCC)c1	> 100 µM (inactive)	> 100 µM (inactive)	> 100 µM (inactive)	> 100 µM (inactive)	> 100	> 100 µM (inactive)	> 100 µM (inactive)	> 100 µM (inactive)	> 100 µM (inactive)	> 100 µM (inactive)	> 100 µM (inactive)	> 100 µM (inactive)	> 100 µM (inactive)	> 100 µM (inactive)	> 100 µM (inactive)	> 100 µM (inactive)	–	> 100 µM (inactive)	> 100 µM (inactive)
